# Patent US6482805B2 (Parker Hughes Institute, priority 1998, dated 2002)
# Like-named read-outs stand apart in the source and are kept apart here.
# Key:
# [1] = system: human sperm; test: Sperm motility assay by CASA (Example 1); assay type: cell-based; settings: for spermicidal activity, in words: compared with related derivatives; for EC50: 3 hours incubation at 37° C., CASA, read-out: EC50, sperm motility
# Description: All donor specimens were obtained after informed consent and in compliance with the guidelines of the Wayne Hughes Institute Institutional Review Board. Motile sperm (≧10×10^6/ml), were suspended in 0.5 ml of Biggers, Whitten, and Whittingam's medium (BWW) containing 25 mM HEPES (Irvine Scientific, Santa Ana, Calif.), and 0.3% bovine serum albumin (BSA; Fraction V, Sigma Chemical Co, St. Louis, Mo.) in the presence and absence of serial two-fold dilutions of test substance (300 μM to 4.6 μm) in 1% DMSO. The stock solutions of synthetic WHI compounds were prepared in DMSO (10 mg/ml) and diluted in DMSO to yield the desired concentrations. Corresponding volume of DMSO (1%) was added to control tubes. N-9 was diluted in BWW-0.3% BSA (pH 7.4) to yield the desired concentrations (4.6 to 300 μM). After 3 hours of incubation at 37° C., the percentage of motile sperm was evaluated by computer-assisted sperm analysis (CASA) as described [L. J. Burkman, Fertil. Steril. […] The percent motilities were compared with sham-treated control suspensions of motile sperm. […] Non-linear regression analyses were used to determine the EC50 values from the concentration effect curves using GraphPad PRISM software (San Diego, Calif.).
# For evaluating sperm motion kinematics using CASA, 4 μl each of sperm suspension was loaded into two 20-μm Microcell chambers (Conception Technologies) that was placed onto a counting chamber at 37° C. At least 5-8 fields per chamber were scanned for analysis using a Hamilton Thorne Integrated Visual Optical System (IVOS), version 10 instrument (Hamilton Thorne Research Inc., Danvers, Mass.). Each field was recorded for 30 seconds. […] The performance of the analyzer was periodically checked using the play-back function. The attributes of sperm kinematic parameters evaluated included numbers of motile (MOT) and progressively (PRG) motile sperm; curvilinear velocity (VCL; a measure of the total distance traveled by a given sperm during the acquisition divided by the time elapsed); average path velocity (VAP; the spatially averaged path that eliminates the wobble of the sperm head), straight line velocity (VSL; the straight-line distance from beginning to end of track divided by time taken), beat cross frequency (BCF, frequency of sperm head crossing sperm average path), the amplitude of lateral head displacement (ALH; the mean width of sperm head oscillation) and the derivatives, straightness ([…]); linearity (LIN=100×VSL/VCL; departure of sperm track from a straight line). Data from each individual cell track were recorded and analyzed. At least 200 motile sperm were analyzed for each aliquot sampled.
# [2] = system: HIV-1; test: Anti-HIV-1 activity, p24 antigen assay in infected PBMC (Example 1); assay type: cell-based; settings: for anti-HIV activity, in words: compared with parent AZT derivatives
# Description: Subsequently, cells were cultured in 96-well microtiter plates (100 μl/well; 2×10^6/ml, triplicate wells) in the presence and absence of various concentrations (0.00 μM to 100 μM) of drugs for 7 days. Aliquots of culture supernatants were removed from the wells on the 7th day after infection for p24 antigen enzyme immunoassay as an indication of viral replication. Erice et al. Antimicrob. Agents and Chemother. […] Agents and Chemother. […] Percent inhibition of virus replication was calculated by comparing the p24 antigen values from the test drug-treated infected cells with p24 antigen values from untreated infected cells. […] Cell viability was quantified by a colorimetric […] assay. F. M. Uckun et al., Antimicrob. Agents and Chemother.
# [3] = system: sperm acrosome; test: Sperm acrosome and membrane integrity by FITC-lectin staining, confocal, SEM and TEM (Example 4); assay type: cell-based, human; settings: 100 μM WHI compounds or 10 μM Cal A23187, 3 hours
# Description: The percentages of sperm with an intact acrosome were evaluated by fluorescence microscopy (Olympus BX-60) following fixation and ethanol permeabilization of the sperm pellets and subsequent staining with fluorescein (FITC)-conjugated Pisum sativum lectin (Sigma). In positive control sperm, the acrosome reaction was induced by incubating (3 hours at 37° C.) the sperm suspension with 10 μm calcium ionophore (Cal) A23187 (Sigma). […] The percentage of sperm positive for PI were determined by flow cytometry using a FACS Vantage flow cytometer (Becton Dickinson and Co., Mountain View, Calif.). The sperm in the swim-up fractions were identified by their characteristic forward and 90° angle light scattering properties [O. J. D'Cruz and G. G. Haas, Jr. Fertil. Steril. 58, 633 (1992)]. All analyses were done using the 488-nm excitation from an krypton/argon laser with a 635-nm band pass filter for PI emission. The percentage of sperm positive for PI staining were determined using cutoff signals for membrane-intact motile sperm.
# Ethanol permeabilized and air-dried sperm smears were stained sequentially with the three fluorescent markers, FITC-Pisum sativum, TOTO-3 iodide, and Nile red, each marking a different target (acrosome, nucleus, and plasma membrane of permeabilized sperm respectively). Samples were examined under a BioRad MRC-1024 Laser Scanning Confocal Microscope (BioRad Laboratories, Hercules, Calif.) equipped with a krypton/argon mixed gas laser (excitation lines 488, 568, and 647 nm) and mounted on a Nikon Eclipse E800 series upright microscope. The fluorescence emission of fluorescein, TOTO-3 iodide, and Nile red from the acrosomal region, nucleus, and the plasma membrane of sperm after ethanol permeabilization were simultaneously detected using the 598/40 nm, 522 DF32, and 680 DF32 emission/filter respectively. Confocal images were obtained using a Nikon 60× (NA 1.35) objective lens and Kalman collection filter. Digitized images were processed with the Adobe Photoshop software (Adobe Systems, Mountain View, Calif.). Final images were printed using a Fujix Pictography 3000 (Fuji Photo Film Co., Tokyo, Japan) color printer.
# High-resolution low-voltage scanning electron microscopy was utilized for topographical imaging of different membrane domains over the sperm head as described [M. H. Stoffel et al. Molecular. Reprod. Develop. 34, 175 (1993); S. L. Erlandsen et al. Scanning 11, 169 (1989)]. […] Washed sperm suspensions were placed on 0.1% poly-L-lysine-coated glass chips and allowed to adhere to the glass over a 60 minute incubation period on ice. The supernatants were decanted, and adherent cells were fixed in 1% paraformaldehyde and 1% glutaraldehyde in 0.14 M sodium cacodylate buffer for 3 hours. To preserve plasma membrane integrity, sperm were post-fixed in 1% osmium tetroxide (OSO4) containing 0.1% ruthenium red in 0.14 M cacodylate buffer for 1 hour at 4° C. All samples were dehydrated through an ascending ethanol series, critical point dried, and coated with approximately 2 nm of platinum using ion beam sputtering with argon (4 mA at 10 ke V; Ion Tech Ltd., Middlesex, England). All samples were examined in a Hitachi S-900 SEM at an accelerating voltage of 2 keV. Sperm were observed under low magnification (×2,000-5000) and representative sperm were photographed under intermediate magnification (×18,000-25,000). In each specimen evaluated, at least 200 sperm were scanned for the intactness of sperm acrosomal region.
# For transmission electron microscopy, treated sperm were fixed in 3% glutaraldehyde in 5% sucrose in 0.2 M cacodylate buffer for 3 hours at room temperature. The samples were post-fixed in 1% OSO4, 5% sucrose and 0.1% ruthenium red for 2 hours at 4° C. The samples were dehydrated in ascending ethanol series, and embedded in Spurr's epoxy. Thin sections (90 nm) were prepared on a Reichert-Jung Ultracut E and stained with uranyl acetate and lead citrate.
molecule,measurement,setting,value
"5-Bromo-6-methoxy-5,6-dihydro-3 ′-deoxythymidine 5′-[Phenyl methoxyalaninyl phosphate] [WHI-12]","spermicidal activity, in words",[1],improvement of the spermicidal activity
same,"anti-HIV activity, in words",[2],reduction in the anti-HIV activity
"5-Bromo-6-methoxy-5,6-dihydro-3′-deoxythymidine 5′-[p-Bromo phenyl methoxyalaninyl phosphate] [WHI-11]","spermicidal activity, in words",[1],improvement of the spermicidal activity
same,"anti-HIV activity, in words",[2],reduction in the anti-HIV activity
"5-bromo-6-methoxy-5,6-dihydro-AZT [WHI-01]",EC50,[1],104 µM
same,"anti-HIV activity, in words",[2],without significantly decreasing the anti-HIV activity
"Cc1cn([C@H]2C[C@H](N=[N+]=[N-])[C@@H](CO)O2)c(=O)[nH]c1=O [AZT, 3′-azido-3′-deoxythymidine, reference compound]",effect on sperm motion parameters (CASA kinematics),[1],did not alter the sperm motion parameters
same,effect on sperm motility,[1]; concentrations as high as 300 μm,did not affect sperm motility
same,IC50,"[2]; Human immunodeficiency virus 1, PBMC, 168 h, read-out: IC50, HIV-1 replication (p24 antigen)",0.006 µM
"CNc1ccc2oc(C[C@H]3O[C@@]4(CC[C@H]3C)O[C@H]([C@H](C)C(=O)c3ccc[nH]3)[C@H](C)C[C@H]4C)nc2c1C(=O)O [Cal A23187, calcium ionophore (Cal) A23187, reference compound]",sperm head topography by scanning electron microscopy,[3],"blebbing or vesiculation, fenestration, and loss of plasma and acrosomal membranes"
"COC1N([C@H]2C[C@H](N)[C@@H](CO)O2)C(=O)NC(=O)C1(C)Br (stereo partly shown) [WHI-03, 5-Bromo-6-methoxy-5,6-dihydro-3′-amino-3 ′-deoxythymidine]",EC50,"[1]; Homo sapiens, Sperm",12 µM
same,melting point,,188 to 190 °C (dec.)
same,"anti-HIV activity, in words",[2],substantially reduced anti-HIV activity
